We go through five molecules from patent US7335505B2, “Materials and methods relating to protein aggregation in neurodegenerative disease” (Wista Laboratories Ltd., priority 2001, dated 2008).

Usually Ki stands for a dissociation constant, usually derived from enzyme kinetics or from competition with a known ligand. Low values mean a stronger hold on the target, high ones a looser hold on the target.

The target of data set [1] is T1, full-length human tau (T40) / 12 kD PHF-core tau fragment (Homo sapiens, UniProt P10636). As to conditions: for inhibition of 12 kD:T40 ratio (in words): IPTG 0-50 μM, thionine and tolonium chloride with 200 μM DTT/ascorbate, chlorpromazine and tacrine without reducing agents.
T1 sequence (P10636 1-441 isoform P10636-8): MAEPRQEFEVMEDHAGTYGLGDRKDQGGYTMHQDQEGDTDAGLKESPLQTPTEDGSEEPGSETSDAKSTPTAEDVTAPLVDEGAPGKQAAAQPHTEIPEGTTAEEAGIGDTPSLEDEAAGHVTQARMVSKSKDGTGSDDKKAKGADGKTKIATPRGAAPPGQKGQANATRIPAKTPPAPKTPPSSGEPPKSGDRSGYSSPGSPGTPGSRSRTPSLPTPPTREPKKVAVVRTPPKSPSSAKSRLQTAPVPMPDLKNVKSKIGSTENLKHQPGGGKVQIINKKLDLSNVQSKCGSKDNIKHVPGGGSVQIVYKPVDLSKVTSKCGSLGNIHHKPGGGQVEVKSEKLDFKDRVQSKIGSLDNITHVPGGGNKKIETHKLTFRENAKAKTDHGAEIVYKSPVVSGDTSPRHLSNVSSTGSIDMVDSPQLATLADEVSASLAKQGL
For data set [2], the target named is T1, full-length human tau (T40) / 12 kD PHF-core tau fragment. The experiment in a line: cell-based.
The nature of data set [3]: Extent of reduction of diaminophenothiazines by DTT or ascorbic acid. The format is physicochemical. Conditions: approx. 500:1 DTT excess, at 120 minutes.
The conditions of data set [4]: in vivo; cited from earlier work.

Take `CN(C)CCCN1c2ccccc2Sc2ccc(Cl)cc21` [chlorpromazine]: the “inhibition of 12 kD:T40 ratio (in words)” value in data set [1] is “non-inhibitory”. This molecule displayed a Ki in data set [2] of 2120 nM.

As to `Nc1c2c(nc3ccccc13)CCCC2` [tacrine], the “inhibition of 12 kD:T40 ratio (in words)” value in data set [1] is given as “non-inhibitory”. The molecule also displayed a Ki in data set [2] of 802 nM.

As to thionine, the extent of reduction result in data set [3] is on record as “completely reduced”. In data set [1], the “toxicity to cells of the assay” value is on record as “toxic” and the “inhibition of 12 kD:T40 ratio (in words)” value is recorded as “essentially identical inhibition”. Besides, the “conversion of induced T40 into the 12 kD fragment” value in data set [1] (2 μM thionine (reduced), increasing IPTG) is “not converted into the 12 kD fragment”.

`Cc1cc2nc3ccc(N(C)C)cc3[s+]c2cc1N` [tolonium chloride]: in data set [4], the “half live in blood” value is on record as “approximately 100 minutes”.

On to `Cc1cc(N(C)C)cc2[s+]c3cc(N(C)C)cc(C)c3nc12` [DMMB, 1,9-Dimethylmethylene Blue], for which, in data set [3], the extent of reduction entry is recorded as “relatively little reduced”. Besides, in data set [1] (1 μM DMMB, with and without IPTG induction), the “effect on tau degradation products within the cell” value is on record as “effectively abolished all degradation products”. Besides, in data set [1] (read-out: cellular B50 value, base-line expression of the 12/14 kD species, concentration reducing 12 kD production to 50%), the IC50 is ~100 nM.
